Data reported in paper PMC6052858 (Die Pharmazie, 2009).
Several values for one entry are separate records, joined by “and”; a condition that tells them apart may be missing. Identical values can stand only once. Like-named read-outs stand apart in the source and are kept apart here.

Key:
[1] = with GFJ; cited from earlier work
P-gp = details: chronic administration of GFJ; ref Varma 2005; cited from earlier work
[2] = Metabolic stability of diltiazem in rat liver S9 fraction; format: in vitro ADME
[3] = Transport of diltiazem mucosal to serosal, normal sac method, rat duodenum; format: in vitro ADME; details: rifampicin pretreatment
[4] = extensive presystemic metabolism; ref Kane et al. 2000; cited from earlier work
in vivo = details: male, Wistar, rat, po, 15 mg/kg
[5] = cited from earlier work
[6] = multiple dose GFJ, listed as DTZ

**Q.** For `CCOC(=O)C1=C(COCCN)NC(C)=C(C(=O)OC)C1c1ccccc1Cl` (stereo not drawn) [amlodipine], which “increase of Tmax” value [1] is on record?
**A.** 115%

**Q.** For `CC(=O)O[C@H]1C(=O)[C@@]2(C)[C@H]([C@H](OC(=O)c3ccccc3)[C@]3(O)C[C@H](OC(=O)[C@H](O)[C@@H](NC(=O)c4ccccc4)c4ccccc4)C(C)=C1C3(C)C)[C@]1(OC(C)=O)CO[C@@H]1C[C@@H]2O` [paclitaxel], which “efflux ratio (ER)” value (P-gp) is on record?
**A.** 20.8

**Q.** Which “% metabolism of diltiazem” value ([2]; control rat liver S9, diltiazem alone 12.5 µM, 1 mg protein/ml, 37 °C, 0 min) does the source give for `COc1ccc([C@@H]2Sc3ccccc3N(CCN(C)C)C(=O)[C@@H]2OC(C)=O)cc1` [Diltiazem, diltiazem] here?
**A.** 0%

**Q.** And the “% metabolism of diltiazem” value ([2]; control rat liver S9, diltiazem alone, 5 min)?
**A.** 36.61%

**Q.** And the “% metabolism of diltiazem” value ([2]; control rat liver S9, diltiazem alone, 10 min)?
**A.** 49.01%

**Q.** And the “% metabolism of diltiazem” value ([2]; control rat liver S9, diltiazem alone, 20 min)?
**A.** 60.15%

**Q.** And the “% metabolism of diltiazem” value ([2]; control rat liver S9, diltiazem alone, 30 min)?
**A.** 69.56%

**Q.** And the “% metabolism of diltiazem” value ([2]; control rat liver S9, diltiazem alone, 40 min)?
**A.** 77.47%

**Q.** And the “% metabolism of diltiazem” value ([2]; control rat liver S9, diltiazem alone, 60 min)?
**A.** 88.91%

**Q.** What about the “% metabolism of diltiazem” value ([2]; control rat liver S9, diltiazem alone, 60 min, listed as DTZ) of the same compound?
**A.** 88.9%

**Q.** And the “% metabolism of diltiazem” value ([2]; control rat liver S9, in presence of testosterone, 0 min)?
**A.** 0%

**Q.** And the “% metabolism of diltiazem” value ([2]; control rat liver S9, in presence of testosterone, 5 min)?
**A.** 9.19%

**Q.** And the “% metabolism of diltiazem” value ([2]; control rat liver S9, in presence of testosterone, 10 min)?
**A.** 16.32%

**Q.** And the “% metabolism of diltiazem” value ([2]; control rat liver S9, in presence of testosterone, 20 min)?
**A.** 29.91%

**Q.** What about the “% metabolism of diltiazem” value ([2]; control rat liver S9, in presence of testosterone, 30 min) of the same compound?
**A.** 35.67%

**Q.** What about the “% metabolism of diltiazem” value ([2]; control rat liver S9, in presence of testosterone, 40 min) of the same compound?
**A.** 38.16%

**Q.** What about the “% metabolism of diltiazem” value ([2]; control rat liver S9, in presence of testosterone, 60 min) of the same compound?
**A.** 41.25%

**Q.** And the “% metabolism of diltiazem” value ([2]; liver S9 from rats treated with GFJ orally for 7 days, 0 min)?
**A.** 0%

**Q.** And the “% metabolism of diltiazem” value ([2]; liver S9 from rats treated with GFJ orally for 7 days, 5 min)?
**A.** 12.79%

**Q.** And the “% metabolism of diltiazem” value ([2]; liver S9 from rats treated with GFJ orally for 7 days, 10 min)?
**A.** 21.11%

**Q.** What about the “% metabolism of diltiazem” value ([2]; liver S9 from rats treated with GFJ orally for 7 days, 20 min) of the same compound?
**A.** 28.49%

**Q.** What about the “% metabolism of diltiazem” value ([2]; liver S9 from rats treated with GFJ orally for 7 days, 30 min) of the same compound?
**A.** 31.38%

**Q.** And the “% metabolism of diltiazem” value ([2]; liver S9 from rats treated with GFJ orally for 7 days, 40 min)?
**A.** 40.76%

**Q.** And the “% metabolism of diltiazem” value ([2]; liver S9 from rats treated with GFJ orally for 7 days, 60 min)?
**A.** 48.26%

**Q.** What about the “% metabolism of diltiazem” value ([2]; liver S9 from rats treated with GFJ orally for 7 days, 60 min, listed as DTZ) of the same compound?
**A.** 48.3%

**Q.** What about the “Increase of mean cumulative efflux of diltiazem vs control” value [3] of the same compound?
**A.** 35.79%

**Q.** And the T1/2 (diltiazem 15 mg/kg p.o with single dose GFJ)?
**A.** 31.2 min

**Q.** What about the “AUC0–24 (AUC0–t), % inhibition (decrease) compared to control” value (multiple dose GFJ) of the same compound?
**A.** 43.22%

**Q.** What about the “Cmax, % inhibition (decrease) compared to control” value (“Cmax, % inhibition (decrease)” below) (multiple dose GFJ) of the same compound?
**A.** 66.09%

**Q.** And the “T1/2, % change compared to control (footnote: % inhibition; text: increased)” value (multiple dose GFJ)?
**A.** 136.7%

**Q.** What about the “Tmax, % change compared to control (footnote: % inhibition; text: increased)” value (multiple dose GFJ) of the same compound?
**A.** 437.5%

**Q.** And the “AUC0–24 (AUC0–t), % inhibition (decrease) compared to control” value [6]?
**A.** 43.2%

**Q.** And the “AUC0–∞, % inhibition (decrease) compared to control” value [6]?
**A.** 35.1%

**Q.** And the “Cmax, % inhibition (decrease)” value [6]?
**A.** 66.0% and 66.1%

**Q.** What about the “Tmax, % change compared to control (footnote: % inhibition; text: increased)” value [6] of the same compound?
**A.** 437.5%

**Q.** And the “AUC0–24 (AUC0–t), % inhibition (decrease) compared to control” value (single dose GFJ)?
**A.** 1.26%

**Q.** What about the “AUC0–∞, % inhibition (decrease) compared to control” value (single dose GFJ) of the same compound?
**A.** 17.98%

**Q.** And the “Cmax, % inhibition (decrease)” value (single dose GFJ)?
**A.** 23.1%

**Q.** And the “T1/2, % change compared to control (footnote: % inhibition)” value (single dose GFJ)?
**A.** 6.12%

**Q.** What about the “Tmax, % change compared to control (footnote: % inhibition)” value (single dose GFJ) of the same compound?
**A.** 0%

**Q.** And the “Cmax, % inhibition (decrease)” value (single dose GFJ, listed as DTZ)?
**A.** 23.14%

**Q.** What about the “T1/2, % change compared to control (footnote: % inhibition)” value (single dose GFJ, listed as DTZ) of the same compound?
**A.** no statistically significant change

**Q.** And the “Tmax, % change compared to control (footnote: % inhibition)” value (single dose GFJ, listed as DTZ)?
**A.** no change

**Q.** What about the oral bioavailability [4] of the same compound?
**A.** 40–50%

**Q.** And the AUC(0-inf) (in vivo; in vivo)?
**A.** 51.5 ng·h/mL

**Q.** And the Tmax (in vivo; plasma)?
**A.** 4.8 min

**Q.** What about the AUC(0-t) (in vivo; plasma, AUC0–24, diltiazem 15 mg/kg p.o with water (control)) of the same compound?
**A.** 43.6 ng·h/mL

**Q.** And the AUC(0-t) (in vivo; plasma, AUC0–24, diltiazem 15 mg/kg p.o, multiple dose GFJ)?
**A.** 24.8 ng·h/mL

**Q.** And the AUC(0-inf) (in vivo; plasma, AUC0–∞, diltiazem 15 mg/kg p.o with water (control))?
**A.** 62.8 ng·h/mL

**Q.** And the AUC(0-inf) (in vivo; plasma, AUC0–∞, diltiazem 15 mg/kg p.o, multiple dose GFJ)?
**A.** 33.7 ng·h/mL

**Q.** What about the Cmax (in vivo; plasma, Cmax, diltiazem 15 mg/kg p.o with water (control), n = 6) of the same compound?
**A.** 121 ± 16.4 ng/mL

**Q.** What about the half-life (in vivo; plasma, T1/2, diltiazem 15 mg/kg p.o with water (control)) of the same compound?
**A.** 29.4 min

**Q.** Which “reduction of area under the curve” value ([5]; intraduodenal, GFJ administered concomitantly, ref Mohri et al. 2000) does the source give for `COC(=O)C1=C(C)NC(C)=C(C(=O)OC)C1c1ccccc1[N+](=O)[O-]` [nifedipine] here?
**A.** 50%

**Q.** What about the “increase of nifedipine levels” value ([5]; rats, long-term administration of GFJ, intraduodenally, ref Mohri et al. (2000)) of the same compound?
**A.** approximately 1.62 times
